Experimental data published in patent publication US11365161B2, “Urea ammonium sulphate-based composition and method for the manufacture thereof” (YARA INTERNATIONAL ASA, priority 2018, dated 2022).
“Also recorded” adds a separate entry of the source.

What was measured:
Type in all cases: physicochemical
[1] = Volatilization measurements (ammonia release, 2 L diffusion kit, Draeger tube); conditions: YaraVera Amidas product comprising 462 ppm nBTPT, treated with stabilizer (FIG. 1, Table 1)
Text: 1. Volatilization Measurements (Ammonia Release 2 L Diffusion Kit) […] Through the lid, a […] tube is placed for the measurement of vol % ammonia. The […] tube turns from yellow to bleu/purple when ammonia is absorbed by the tube. The amount of vol % ammonia released can be followed in time. Experiment 1 defines the problem.

[2] = Stability of nBTPT on urea ammonium sulphate (YaraVera Amidas) during storage, HPLC analysis of nBTPT content; conditions: for Stabilizing effect on nBTPT (MgSO4/MgO combinations): Experiment 4: YaraVera Amidas product comprising 462 ppm nBTPT (FIG. 4)
Description: For lab scale experiments, 1.2 kg of solid fertilizer material was added to a lab scale drum. […] A residence time of 10 minutes was applied and the rotating speed of the drum was consequently the same in each experiment. […] Before use, the moisture-repellent coating was preheated to 80° C. Larger scale experiments with amounts up to 40 kg of fertilizer material were performed in a concrete mixer. The samples were stored under several conditions, dependent on the type of samples: • Bagged at room temperature (18-25° C.) • Bagged at 40° C. • Open to air at room temperature (18-25° C.) 3.

pH of MgSO4 grades = assay: pH of MgSO4 grades

## O=S(=O)([O-])[O-].[Ca+2] [CaSO4, CaSO4 anhydrous]
[1]
  Ammonia release: no ammonia release

## O=S(=O)([O-])[O-].[Mg+2] [MgSO4, magnesium sulphate]
[1]
  Ammonia release: no ammonia release; also recorded: no ammonia is generated
[2]; Experiment 2: open to air at room temperature 40 days (FIG. 2A) and in bags at 40 °C 8 days (FIG. 2B), 462 ppm nBTPT
  Stabilizing effect on nBTPT in the presence of UAS: comparable with the effect of the prior art compound (CaO)
[2]
  Stabilizing effect on nBTPT (MgSO4/MgO combinations): little effect
[2]; more than 1 weight % magnesium sulphate in the composition
  Stabilizing effect at higher level of magnesium sulphate: did not produce a proportionally better stabilizing effect

## [O]=[Ca] [CaO, calcium oxide]
[1]
  Ammonia release: producing ammonia

## O=S(=O)([O-])[O-].[Mg+2] [MgSO4 99.5%, MgSO4 anhydrous, >99.5%]
pH of MgSO4 grades
  pH: 8.5

## O=S(=O)([O-])[O-].[Mg+2] [MgSO4 99.999%, MgSO4 anhydrous, 99.999%]
pH of MgSO4 grades
  pH: 6.1

## [O]=[Mg] [MgO, magnesium oxide, reference compound]
[1]
  Ammonia release: producing ammonia
[2]
  Stabilizing effect on nBTPT (MgSO4/MgO combinations): more effective than CaO

## O=S(=O)([O-])[O-].[Na+].[Na+] [Na2SO4, reference compound]
[2]; Experiment 3: open plastic containers at room temperature for 21 days, 462 ppm nBTPT (FIG. 3)
  nBTPT stability on the YaraVera Amidas product: negative effect on the stability of nBTPT
